Values after ≈ are worked out from the molar mass of the structure shown.
Assays:
CnTS = CnTS (Cryptococcus neoformans, UniProt P0CS12); format: biochemical
Protocol: (§1) Enzymatic inhibition assay: The compounds hereby analyzed were previously dissolved in DMSO. The inhibitor concentrated solution was obtained by dissolving 2 mg of compound in 1 mL of DMSO. Next, solutions thus obtained were successively preserved and the […], and the stability of their working conditions was constantly controlled. The spectrophotometrical determinations of enzymatic reaction kinetics were carried out using a Parkin-Elmer λ16 spectrophotometer, provided with a multicell system which was maintained at the constant temperature of 20 C. degrees, with a HAAAKE F3C thermostatted bath.
(§2) The elaboration of the data was carried out using Kaleidagraph 3.0; this software was provided by Macintosh (Adelbeck, Software Reading, Pa., 1989, version 2.3). The measurement of Ki (inhibition constant) was obtained through enzymatic inhibition essays carried out under stationary conditions. […] The enzyme is added finally. The assay aiming at controlling TS enzymatic activity is repeated at regular intervals. […] In this case inhibition constants were obtained through a non-linear regression analysis, which utilized of the least squared method, of the enzymatic reaction initial speeds relating to the inhibitor concentration; equation was the following:
Vi=Vmax*(1−([I])/([I]+(Ki*(1+([s]/Km))))), where
Vi=enzymatic reaction initial velocity, Vmax=enzymatic reaction maximum velocity, I=inhibitor concentration, Ki=inhibition constant, S=substrate concentration, Km=Michaelis-Menten.
Using this equation it is possible to obtain Ki making use of a minimal amount of experimental data. The specificity index relating to each of the compounds (Bio. Med. Chem. ) refers to the relation between KihTS/Kiother enzyme.

hDHFR (human DHFR) = target: T1, hDHFR (human DHFR) (Homo sapiens, UniProt P00374); experiment: Enzymatic inhibition assay (Ki), human DHFR; format: biochemical
T1 construct: made in house; host or cells: Escherichia coli chi2913
T1 sequence (P00374 1-187): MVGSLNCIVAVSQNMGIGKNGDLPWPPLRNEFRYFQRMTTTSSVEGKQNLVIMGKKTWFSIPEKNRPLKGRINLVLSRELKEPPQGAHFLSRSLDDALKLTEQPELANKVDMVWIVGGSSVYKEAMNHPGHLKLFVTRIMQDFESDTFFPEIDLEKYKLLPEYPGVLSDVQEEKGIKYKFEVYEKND
Protocol: The purified enzyme has been stored at −80° C. […] The enzymatic assays for the measurements of the Km consist in measuring the initial rate of the enzymatic reaction in presence of variable and increasing substrate (FAH2).
as §1
as §2, with “The” for “The elaboration of the data was carried out using Kaleidagraph 3.0; this software was provided by Macintosh (Adelbeck, Software Reading, Pa., 1989, version 2.3). The”, “following: […]” for “following:”

Streptococcus 42 = experiment: Sensitivity assay (MIC); format: cell-based
Protocol: (§3) The anti-bacterial properties of the compounds hereby described were evaluated towards: a) bacterial native strains comprehending gram-positive and gram-negative bacteria. The bacterial cultures were obtained by sowing bacteria in Mueller-Hinton (Difco) stirring at 37 C for 24 hours, and were then diluted, after reaching an appreciable level of exponential growth, using a growth plot in order to get a […] CFU/mL inoculum. Following, the obtained cultures were put in contact with growing concentrations of the present compound. Furthermore, it was measured the minimal concentration inhibiting the growth (MIC) of each of these compounds. In Table 2 several MIC obtained by different bacterial pathogenic strains have been reported that were treated using compounds of the present invention and were also compared with those obtained through ciprofluoxacin (cpx).

Listeria monocytogenes 5 = experiment: Sensitivity assay (MIC); format: cell-based
Protocol: as §3

[1] = tested on: Staphylococcus aureus 341; experiment: Sensitivity assay (MIC); format: cell-based
Protocol: as §3

[2] = tested on: Staphylococcus haemolyticus ATCC 2997; experiment: Sensitivity assay (MIC); format: cell-based
Protocol: as §3

[3] = tested on: Staphylococcus saprophiticus ATCC15305; experiment: Sensitivity assay (MIC); format: cell-based
Protocol: as §3

Escherichia coli 292 = experiment: Sensitivity assay (MIC); format: cell-based
Protocol: as §3

Listeria monocytogenes 3 = experiment: Sensitivity assay (MIC); format: cell-based
Protocol: as §3

[4] = tested on: Listeria monocytogenes ATCC 4428; experiment: Sensitivity assay (MIC); format: cell-based
Protocol: as §3

Listeria monocytogenes 6 = experiment: Sensitivity assay (MIC); format: cell-based
Protocol: as §3

Escherichia coli 256 = experiment: Sensitivity assay (MIC); format: cell-based
Protocol: as §3

Listeria monocytogenes 8 = experiment: Sensitivity assay (MIC); format: cell-based
Protocol: as §3

Listeria monocytogenes 4 = experiment: Sensitivity assay (MIC); format: cell-based
Protocol: as §3

Citrobacter 224 = experiment: Sensitivity assay (MIC); format: cell-based
Protocol: as §3

Listeria monocytogenes 7 = experiment: Sensitivity assay (MIC); format: cell-based
Protocol: as §3

[5] = tested on: Staphylococcus aureus K28; experiment: Sensitivity assay (MIC); format: cell-based
Protocol: as §3

[6] = tested on: Staphylococcus aureus ATCC29213; experiment: Sensitivity assay (MIC); format: cell-based
Protocol: as §3

[7] = tested on: Enterococcus faecalis ATCCC 29212; experiment: Sensitivity assay (MIC); format: cell-based
Protocol: as §3

[8] = tested on: Staphylococcus aureus 343; experiment: Sensitivity assay (MIC); format: cell-based
Protocol: as §3

VERO cells = experiment: Citotoxicity assay (MTT test on VERO cells); format: cell-based; details: for MTT test, percentage of cellular growth: VERO cells, 24-hour incubation
Protocol: Aiming at evaluating the citotoxicity level, the compounds included in the present invention were submitted to the MTT assay, by using VERO cells on MEM soil/ground which was previously added with […]), penicillin (1%) (50 U/ml), streptomycine (50 μg/ml) e L-glutamine (1%) according to the Ishioka method (1988). Afterwards the cultures have been observed for 2 days through microscope at indirect light, and the living cells have been quantified in a Burker camera using the Tripan blue exclusion assay.
Later several increasing concentrations of the analyzed compound were added thereto and, after a 24-hour incubation period, the mitochondrial dehydrogenase activity was measured in the living cells (MTT assay) (Mosmann, T. 1983), by using a sample of the hereof compound which had not been previously as a comparison.

[9] = tested on: multiresistant strains (clinical isolates); experiment: Sensitivity assay on 23 isolated multiresistant bacterial strains; format: cell-based; details: multiresistant strains taken into consideration
Protocol: (§4) The bacterial cultures were obtained by sowing bacteria in Mueller-Hinton (Difco) stirring at 37 C for 24 hours, and were then diluted, after reaching an appreciable level of exponential growth, using a growth plot in order to get a […] CFU/mL inoculum.
(§5) Following, the obtained cultures were put in contact with growing concentrations of the present compound. Furthermore, it was measured the minimal concentration inhibiting the growth (MIC) of each of these compounds. In Table 2 several MIC obtained by different bacterial pathogenic strains have been reported that were treated using compounds of the present invention and were also compared with those obtained through ciprofluoxacin (cpx).

[10] = tested on: S. epidermidis strains (multiresistant); experiment: Sensitivity assay and growth curve, multiresistant S. epidermidis strains; format: cell-based, Staphylococcus epidermidis
Protocol: as §4, §5

CnTS, sequence (P0CS12 whole entry): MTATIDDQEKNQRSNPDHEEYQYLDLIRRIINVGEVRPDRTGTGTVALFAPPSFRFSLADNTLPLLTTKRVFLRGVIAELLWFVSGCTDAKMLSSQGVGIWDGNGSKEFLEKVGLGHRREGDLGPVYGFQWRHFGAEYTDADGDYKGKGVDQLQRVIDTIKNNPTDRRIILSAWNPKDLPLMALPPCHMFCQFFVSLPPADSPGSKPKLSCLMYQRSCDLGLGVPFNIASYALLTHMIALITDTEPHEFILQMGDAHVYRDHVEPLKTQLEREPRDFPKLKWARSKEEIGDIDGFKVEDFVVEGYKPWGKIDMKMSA

Row | Compound | Ki (CnTS) [µM] | Ki (hDHFR (human DHFR)) [µM] | SSI hTS vs hDHFR (hDHFR (human DHFR)) | Minimum inhibitory concentration (MIC) (Streptococcus 42) [µg/mL] | Minimum inhibitory concentration (MIC) (Listeria monocytogenes 5) [µg/mL] | Minimum inhibitory concentration (MIC) [1] [µg/mL] | Minimum inhibitory concentration (MIC) [2] [µg/mL] | Minimum inhibitory concentration (MIC) [3] [µg/mL] | Minimum inhibitory concentration (MIC) (Escherichia coli 292) [µg/mL] | Minimum inhibitory concentration (MIC) (Listeria monocytogenes 3) [µg/mL] | Minimum inhibitory concentration (MIC) [4] [µg/mL] | Minimum inhibitory concentration (MIC) (Listeria monocytogenes 6) [µg/mL] | Minimum inhibitory concentration (MIC) (Escherichia coli 256) [µg/mL] | Minimum inhibitory concentration (MIC) (Listeria monocytogenes 8) [µg/mL] | Minimum inhibitory concentration (MIC) (Listeria monocytogenes 4) [µg/mL] | Minimum inhibitory concentration (MIC) (Citrobacter 224) [µg/mL] | Minimum inhibitory concentration (MIC) (Listeria monocytogenes 7) [µg/mL] | Minimum inhibitory concentration (MIC) [5] [µg/mL] | Minimum inhibitory concentration (MIC) [6] [µg/mL] | Minimum inhibitory concentration (MIC) [7] [µg/mL] | further results
1 | O=C1OC(c2ccc(O)c(F)c2)(c2ccc(O)c(F)c2)c2ccc3ccccc3c21 [Compound 8, 3,3-Bis-(3-fluorine-4-hydroxyphenyl)1H-naphtho(1,2-c)furan-3-one] | 3.5 | 109 | 1 | 25 (≈ 61.8 µM) | 25 (≈ 61.8 µM) | 25 (≈ 61.8 µM) | 25 (≈ 61.8 µM) | 25 (≈ 61.8 µM) | >50 | 25 (≈ 61.8 µM) | 25 (≈ 61.8 µM) | 25 (≈ 61.8 µM) | >50 | 25 (≈ 61.8 µM) | 25 (≈ 61.8 µM) | >50 | 25 (≈ 61.8 µM) | 25 (≈ 61.8 µM) | 25 (≈ 61.8 µM) | 25 (≈ 61.8 µM) | Minimum inhibitory concentration (MIC) [8]: 25 µg/mL (≈ 61.8 µM)
2 | O=C1OC(c2ccc(O)cc2)(c2ccc(O)cc2)c2ccc3ccccc3c21 [Compound 6, 3,3-Bis-(4-hydroxyphenyl)-1H-naphtho[1,2-c]furan-3-one] | – | 13 | – | – | – | – | – | – | – | – | – | – | – | – | – | – | – | – | – | – | –
3 | O=C1OC(c2cc(Br)c(O)c(Br)c2)(c2cc(Br)c(O)c(Br)c2)c2ccc3ccccc3c21 [Compound 5, 3,3-bis-(3,5-bromo-4-hydroxyphenyl)-3H-naphtho(1,2-c)furan-1-one] | 13 | 69 | 0.3 | 2.5 (≈ 3.66 µM) | 2.5 (≈ 3.66 µM) | 2.5 (≈ 3.66 µM) | 2.5 (≈ 3.66 µM) | 1 (≈ 1.46 µM) | >25 | 2.5 (≈ 3.66 µM) | 2.5 (≈ 3.66 µM) | 2.5 (≈ 3.66 µM) | >25 | 2.5 (≈ 3.66 µM) | 2.5 (≈ 3.66 µM) | >25 | 2.5 (≈ 3.66 µM) | 2.5 (≈ 3.66 µM) | 2.5 (≈ 3.66 µM) | 2.5 (≈ 3.66 µM) | citotoxicity (VERO cells; 1 mg/L, VERO cells (Table 3)): not to be citotoxic; MTT test, percentage of cellular growth (VERO cells; 1.56 mg/L): 100 percentage; MTT test, percentage of cellular growth (VERO cells; 3.12 mg/L): 100 percentage; MTT test, percentage of cellular growth (VERO cells; 6.25 mg/L): 100 percentage; MTT test, percentage of cellular growth (VERO cells; 12.05 mg/L): 100 percentage; MTT test, percentage of cellular growth (VERO cells; 25 mg/L): 100 percentage; MTT test, percentage of cellular growth (VERO cells; 50 mg/L): >100 percentage; activity on multiresistant strains [9]: active on the major part of the multiresistant strains; inhibitory effect on S. epidermidis growth (FIG. 1) ([10]; 0.1 mg/L): No inhibitory effect; antibacterial activity on S. epidermidis growth (FIG. 1) ([10]; 0.5 mg/L, after a 8 hours period): antibacterial activity becomes evident; antibacterial effect on S. epidermidis growth (FIG. 1) ([10]; 1 mg/L): best result; concentration to which the strain is sensitive ([10]; S. epidemidis strain resistant to 17 antibiotics): 0.5 mg/L; lowest MIC on S. epidermidis strains ([10]; multiresistant S. epidermidis strains): 0.5 to 1 µg/mL; Minimum inhibitory concentration (MIC) [8]: 2.5 µg/mL (≈ 3.66 µM)
4 | O=C1OC(c2ccc(O)c(Cl)c2)(c2ccc(O)c(Cl)c2)c2ccc3ccccc3c21 [Compound 7, 3,3-Bis-(3-chlorine-4-hydroxyphenyl)1H-naphtho(1,2-c)furan-3-one] | 8.1 | – | 1 | – | – | – | – | – | – | – | – | – | – | – | – | – | – | – | – | – | –
5 | O=C(O)c1cn(C2CC2)c2cc(N3CCNCC3)c(F)cc2c1=O [cpx, ciprofluoxacin, reference compound] | – | – | – | >5 | 2.5 (≈ 7.54 µM) | 1.2 (≈ 3.62 µM) | 2.5 (≈ 7.54 µM) | 1 (≈ 3.02 µM) | >25 | 2.5 (≈ 7.54 µM) | 2.5 (≈ 7.54 µM) | 2.5 (≈ 7.54 µM) | >25 | 1 (≈ 3.02 µM) | 1 (≈ 3.02 µM) | >25 | 1 (≈ 3.02 µM) | 0.5 (≈ 1.51 µM) | 0.5 (≈ 1.51 µM) | 12.5 (≈ 37.7 µM) | Minimum inhibitory concentration (MIC) [8]: 0.5 µg/mL (≈ 1.51 µM)
6 | O=C1OC(c2ccc(O)c(Br)c2)(c2ccc(O)c(Br)c2)c2ccc3ccccc3c21 [Compound 4] | 2.7 | 33 | 0.2 | – | – | – | – | – | – | – | – | – | – | – | – | – | – | – | – | – | –
7 | O=C1OC(c2ccc(O)c(I)c2)(c2ccc(O)c(I)c2)c2ccc3ccccc3c21 [Compound 3] | 4.5 | 3.9 | 0.01 | – | – | – | – | – | – | – | – | – | – | – | – | – | – | – | – | – | –
8 | Cc1cc(O)c(C(C)C)cc1C1(c2cc(C(C)C)c(O)cc2C)OC(=O)c2c1ccc1ccccc21 [Compound 2, 33,3-Bis-(4-hydroxyl-5-isopropyl-2-methylphenyl)-3H-naphtho(1,2-c)furan-1-one] | 0.6 | 35 | 88 | – | – | – | – | – | – | – | – | – | – | – | – | – | – | – | – | – | –

— patent publication US20100048692A1, “Naphthofuranone Derivatives as Specific Inhibitors of Thymidylate Synthases” (priority 2006, published 2010)
